Measurements as given in PubChem BioAssay AID1259407 (Chemical Carcinogenesis Research Information System (CCRIS), 2018).
The source made the active and inactive calls. How the calls were made is not given here.

Test system: CCRIS mutagenicity, Ames/micronucleus/aberration tests
Assay: CCRIS mutagenicity studies
[1] = Test System: AMES SALMONELLA TYPHIMURIUM, Strain/Indicator: TA98, Metabolic Activation: NONE, Method: PREINCUBATION
[2] = Test System: AMES SALMONELLA TYPHIMURIUM, Strain/Indicator: TA100, Metabolic Activation: NONE, Method: PREINCUBATION

NC=O
mutagenic call (End Point: In vivo micronucleus, Test System: Peripheral blood erythrocytes, Species: Mouse, Strain/Sex: B6C3F1/ Male and Female, Route: Oral): inactive; negative | mutagenic call (Test System: AMES SALMONELLA TYPHIMURIUM, Strain/Indicator: TA98, Metabolic Activation: HAMSTER, LIVER, S-9, AROCLOR 1254 (10%), Method: PREINCUBATION): inactive; negative | mutagenic call [1]: inactive; negative | mutagenic call (Test System: AMES SALMONELLA TYPHIMURIUM, Strain/Indicator: TA98, Metabolic Activation: RAT LIVER S-9, PHENOBARBITAL AND BETA-NAPHTHOFLAVONE, Method: PREINCUBATION): inactive; negative | mutagenic call (Test System: AMES SALMONELLA TYPHIMURIUM, Strain/Indicator: TA98, Metabolic Activation: RAT, LIVER, S-9, AROCLOR 1254 (10%), Method: PREINCUBATION): inactive; negative | mutagenic call (Test System: AMES SALMONELLA TYPHIMURIUM, Strain/Indicator: TA100, Metabolic Activation: HAMSTER, LIVER, S-9, AROCLOR 1254 (10%), Method: PREINCUBATION): inactive; negative | mutagenic call [2]: inactive; negative | mutagenic call (Test System: AMES SALMONELLA TYPHIMURIUM, Strain/Indicator: TA100, Metabolic Activation: RAT LIVER S-9, PHENOBARBITAL AND BETA-NAPHTHOFLAVONE, Method: PREINCUBATION): inactive; negative | mutagenic call (Test System: AMES SALMONELLA TYPHIMURIUM, Strain/Indicator: TA100, Metabolic Activation: RAT, LIVER, S-9, AROCLOR 1254 (10%), Method: PREINCUBATION): inactive; negative | mutagenic call (Test System: AMES SALMONELLA TYPHIMURIUM, Strain/Indicator: TA1535, Metabolic Activation: HAMSTER, LIVER, S-9, AROCLOR 1254 (10%), Method: PREINCUBATION): inactive; negative | mutagenic call (Test System: AMES SALMONELLA TYPHIMURIUM, Strain/Indicator: TA1535, Metabolic Activation: NONE, Method: PREINCUBATION): inactive; negative | mutagenic call (Test System: AMES SALMONELLA TYPHIMURIUM, Strain/Indicator: TA1535, Metabolic Activation: RAT LIVER S-9, PHENOBARBITAL AND BETA-NAPHTHOFLAVONE, Method: PREINCUBATION): inactive; negative | mutagenic call (Test System: AMES SALMONELLA TYPHIMURIUM, Strain/Indicator: TA1535, Metabolic Activation: RAT, LIVER, S-9, AROCLOR 1254 (10%), Method: PREINCUBATION): inactive; negative | mutagenic call (Test System: AMES SALMONELLA TYPHIMURIUM, Strain/Indicator: TA1537, Metabolic Activation: HAMSTER, LIVER, S-9, AROCLOR 1254 (10%), Method: PREINCUBATION): inactive; negative | mutagenic call (Test System: AMES SALMONELLA TYPHIMURIUM, Strain/Indicator: TA1537, Metabolic Activation: NONE, Method: PREINCUBATION): inactive; negative | mutagenic call (Test System: AMES SALMONELLA TYPHIMURIUM, Strain/Indicator: TA1537, Metabolic Activation: RAT LIVER S-9, PHENOBARBITAL AND BETA-NAPHTHOFLAVONE, Method: PREINCUBATION): inactive; negative | mutagenic call (Test System: AMES SALMONELLA TYPHIMURIUM, Strain/Indicator: TA1537, Metabolic Activation: RAT, LIVER, S-9, AROCLOR 1254 (10%), Method: PREINCUBATION): inactive; negative | mutagenic call (Test System: Ames Salmonella typhimurium, Strain/Indicator: TA98, Metabolic Activation: None, Method: Preincubation): inactive; negative | mutagenic call (Test System: Ames Salmonella typhimurium, Strain/Indicator: TA98, Metabolic Activation: Rat, Liver, S-9, Aroclor 1254 (10%), Method: Preincubation): inactive; negative | mutagenic call (Test System: Ames Salmonella typhimurium, Strain/Indicator: TA100, Metabolic Activation: None, Method: Preincubation): inactive; negative | mutagenic call (Test System: Ames Salmonella typhimurium, Strain/Indicator: TA100, Metabolic Activation: Rat, Liver, S-9, Aroclor 1254 (10%), Method: Preincubation): inactive; negative | mutagenic call (Test System: E. coli, Strain/Indicator: WP urvA pKM101, Metabolic Activation: None, Method: Preincubation): inactive; negative | mutagenic call (Test System: E. coli, Strain/Indicator: WP urvA pKM101, Metabolic Activation: Rat, Liver, S-9, Aroclor 1254 (10%), Method: Preincubation): inactive; negative | mutagenic call (Test System: E.COLI, Strain/Indicator: WP2UVRA/PKM101, Metabolic Activation: NONE, Method: PREINCUBATION): inactive; negative | mutagenic call (Test System: E.COLI, Strain/Indicator: WP2UVRA/PKM101, Metabolic Activation: RAT LIVER S-9, PHENOBARBITAL AND BETA-NAPHTHOFLAVONE, Method: PREINCUBATION): inactive; negative

O=CNc1nc(-c2ccc([N+](=O)[O-])cc2)cs1
mutagenic call (Test System: AMES SALMONELLA TYPHIMURIUM, Strain/Indicator: TA98, Metabolic Activation: RAT, LIVER, S-9, KC500 OR PHENOBARBITAL, Method: LIQUID SUSPENSION): active; positive | mutagenic call (Test System: AMES SALMONELLA TYPHIMURIUM, Strain/Indicator: TA100, Metabolic Activation: RAT, LIVER, S-9, KC500 OR PHENOBARBITAL, Method: LIQUID SUSPENSION): active; positive

O=C(O)Cc1ccccc1Cl
mutagenic call [1]: inactive; negative | mutagenic call (Test System: AMES SALMONELLA TYPHIMURIUM, Strain/Indicator: TA98, Metabolic Activation: RAT LIVER S-9, PCB, Method: PREINCUBATION): inactive; negative | mutagenic call [2]: inactive; negative | mutagenic call (Test System: AMES SALMONELLA TYPHIMURIUM, Strain/Indicator: TA100, Metabolic Activation: RAT LIVER S-9, PCB, Method: PREINCUBATION): inactive; negative | mutagenic call (Test System: AMES SALMONELLA TYPHIMURIUM, Strain/Indicator: TA104, Metabolic Activation: NONE, Method: PREINCUBATION): inactive; negative | mutagenic call (Test System: AMES SALMONELLA TYPHIMURIUM, Strain/Indicator: TA104, Metabolic Activation: RAT LIVER S-9, PCB, Method: PREINCUBATION): inactive; negative | mutagenic call (Test System: E.COLI, Strain/Indicator: WP2 UVRA, Metabolic Activation: NONE, Method: PREINCUBATION): inactive; negative | mutagenic call (Test System: E.COLI, Strain/Indicator: WP2 UVRA, Metabolic Activation: RAT LIVER S-9, PCB, Method: PREINCUBATION): inactive; negative

CCCC(=O)OCC
mutagenic call (Test System: AMES SALMONELLA TYPHIMURIUM, Strain/Indicator: TA97, Metabolic Activation: NONE, Method: PREINCUBATION): inactive; negative | mutagenic call (Test System: AMES SALMONELLA TYPHIMURIUM, Strain/Indicator: TA97, Metabolic Activation: RAT, LIVER, S-9, AROCLOR 1254, Method: PREINCUBATION): inactive; negative | mutagenic call (Test System: AMES SALMONELLA TYPHIMURIUM, Strain/Indicator: TA102, Metabolic Activation: NONE, Method: PREINCUBATION): inactive; negative | mutagenic call (Test System: AMES SALMONELLA TYPHIMURIUM, Strain/Indicator: TA102, Metabolic Activation: RAT, LIVER, S-9, AROCLOR 1254, Method: PREINCUBATION): inactive; negative

CC(=O)N=c1sn(C(C)=O)c2ccc([N+](=O)[O-])cc12
mutagenic call (Test System: AMES SALMONELLA TYPHIMURIUM, Strain/Indicator: TA100, Metabolic Activation: S-9, Method: STANDARD PLATE): active; positive

CCCCC/C=C/C=O
mutagenic call (Test System: CHINESE HAMSTER V-79, Strain/Indicator: V-79/6-THIOGUANINE, Metabolic Activation: NONE, Method: STANDARD PLATE): active; positive | mutagenic call (Test System: CHINESE HAMSTER V-79, Strain/Indicator: V-79/OUABAIN, Metabolic Activation: NONE, Method: STANDARD PLATE): inactive; negative

C=CC(C)(C)c1cc2cc3c(cc2oc1=O)OC(C(C)(C)OC(C)=O)C3 (centres undefined)
mutagenic call (Test System: AMES SALMONELLA TYPHIMURIUM, Strain/Indicator: TA98, Metabolic Activation: NONE, Method: STANDARD PLATE): inactive; negative | mutagenic call (Test System: AMES SALMONELLA TYPHIMURIUM, Strain/Indicator: TA98, Metabolic Activation: RAT, LIVER, S-9, PHENOBARBITAL, Method: STANDARD PLATE): inactive; negative
